Experiments:
Test in all cases: cell viability, percent of DMSO control (CellTiter-Glo); higher = more viable cells
Details in all cases: 72 h
[1] = test system: DFTD cell line T2 (05/2569)
Method: (§1)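 Eight-point dose titration of 41 screen hits in triplicate wells on four Tasmanian devil DFTD tumour cell lines (T1-T4) and devil fibroblasts, 384-well plates. Viability was read by CellTiter-Glo (ATP) after 72 h at 37 °C. Percent of control per plate: DMSO wells = 100%, positive-control wells = 0%.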

[2] = test system: DFTD cell line T3 (06/0368)
Method: as §1

[3] = test system: DFTD cell line T4 (07/0192)
Method: as §1

[4] = test system: DFTD cell line T1 (06/2887)
Method: as §1

C=CC(=O)N1CCC(Oc2cc3c(Nc4ccc(Cl)c(Cl)c4F)ncnc3cc2OC)CC1 [Poziotinib (HM781-36B)]
cell viability [%]
Details	0.00617 µM	0.0185 µM	0.0556 µM	0.166667 µM	0.5 µM	1.5 µM	4.5 µM	13.5 µM
[1]	87.7	49.6	41.5	38.3	39	26.8	22.5	17
[2]	87	52.5	44	44.6	42.2	30.8	35.9	33
[3]	88.7	44.9	30.6	26.5	27.4	27.1	22.8	21.4
[4]	56.7	29.4	24.3	29.3	28	24.4	26.8	26.6

O=C(/C=C/c1cccc(S(=O)(=O)Nc2ccccc2)c1)NO [RLM 2-89]
cell viability [%]
Details	0.000617 µM	0.00185 µM	0.00556 µM	0.0167 µM	0.05 µM	0.15 µM	0.45 µM	1.35 µM
[1]	110	96.3	118	106	125	82.3	28.8	20.7
[2]	120	103	116	121	128	77.7	32.4	28.9
[3]	121	109	87.9	125	123	83.5	38.1	19.1
[4]	130	115	116	113	114	52.6	20.5	17.4

C=CC(=O)Nc1cccc(Nc2nc(Nc3ccc(N4CCN(C(C)=O)CC4)cc3OC)ncc2C(F)(F)F)c1 [Rociletinib (CO-1686, AVL-301)]
cell viability [%]
Details	0.00617 µM	0.0185 µM	0.0556 µM	0.166667 µM	0.5 µM	1.5 µM	4.5 µM	13.5 µM
[1]	119	108	108	104	86.5	63.1	33.7	12
[2]	127	113	94.5	99.1	101	58.2	40.4	17.4
[3]	116	101	102	89.6	88.6	56.6	32.4	11.9
[4]	121	114	113	92.4	80.6	41.4	16.9	4.81

Cn1cnc2c(F)c(Nc3ccc(Br)cc3Cl)c(C(=O)NOCCO)cc21.O=S(=O)(O)O [Selumetinib (AZD6244)]
cell viability [%]
Details	0.00617 µM	0.0185 µM	0.0556 µM	0.166667 µM	0.5 µM	1.5 µM	4.5 µM	13.5 µM
[1]	98.8	102	108	63	51.7	39.3	35.4	35.8
[2]	102	112	99.1	75.3	63.7	56.9	42.5	50.7
[3]	89	105	88	62.8	56.2	46	35	31.1
[4]	104	100	104	57	41	35.4	29.1	33.4

CC(C)(C)P(=NC(=S)NCCCO)(N1CCCCCC1)N1CCCCCC1 [T0503-0280]
cell viability [%]
Details	0.00617 µM	0.0185 µM	0.0556 µM	0.166667 µM	0.5 µM	1.5 µM	4.5 µM	13.5 µM
[1]	107	87.6	127	115	92.6	68.7	14.8	27.7
[2]	106	83.3	134	118	99.4	66	17.6	16.1
[3]	118	85.2	129	105	112	38.2	11.4	30.9
[4]	94.1	106	125	116	96.1	50.7	24.5	19.9

CCS(=O)(=O)c1cccc(-c2cc(C(=O)NC3CCN(C)CC3)c(C)c3[nH]c4ncc(C)cc4c23)c1 [TAK901]
cell viability [%]
Details	0.00617 µM	0.0185 µM	0.0556 µM	0.166667 µM	0.5 µM	1.5 µM	4.5 µM	13.5 µM
[1]	125	103	127	111	126	42.4	1.18	-1.98
[2]	106	105	95.9	98.5	104	42.6	4.34	-3.65
[3]	99.7	109	103	104	96.7	26.5	-1.88	-6.14
[4]	104	109	113	121	138	59.4	12	-4.29

COc1cc2ncnc(Nc3ccc(O)c(Br)c3)c2cc1OC [WHI-P154]
cell viability [%]
Details	0.00617 µM	0.0185 µM	0.0556 µM	0.166667 µM	0.5 µM	1.5 µM	4.5 µM	13.5 µM
[1]	85	116	105	95.7	58.1	45.3	32.1	20.6
[2]	76.9	125	98.1	92	67.7	55.6	40.4	32.8
[3]	85.6	134	115	84.5	69	42.4	30.6	19.7
[4]	90.9	125	103	86	46.2	36.9	25	21.8

COCCn1c2c([n+](Cc3cnccn3)c1C)C(=O)c1ccccc1C2=O.[Br-] [YM155]
cell viability [%]
Details	0.00617 µM	0.0185 µM	0.0556 µM	0.166667 µM	0.5 µM	1.5 µM	4.5 µM	13.5 µM
[1]	106	87.2	111	91.9	42.4	4.91	-0.0383	-10.8
[2]	111	95.3	105	89.3	22	5.85	4.15	-5.27
[3]	107	91.5	86.1	32.4	7.29	-1.02	5.5	-4.07
[4]	106	104	109	80.8	38.4	6.92	1.97	-9.67
